Source: patent US20070232625A1, “Fungicidal Mixtures” (priority 2004, published 2007)

System: Alternaria solani
Assay: Activity against early blight of tomato caused by Alternaria solani (protective spray test on potted tomato plants)
Assay type: in vivo
Conditions: tomato cultivar Golden Princess, evaluated after 5 days
Procedure: The active compounds, separately or jointly, were prepared as a stock solution comprising 0.25% by weight of active compound in acetone or DMSO. 1% by weight of the emulsifier Uniperol® EL (wetting agent having emulsifying and dispersant action based on ethoxylated alkylphenols) was added to this solution, and the mixture was diluted with water to the desired concentration.
Leaves of potted plants of the cultivar “Golden Princess” were sprayed to runoff point with an aqueous suspension having the concentration of active compound stated below. The next day, the leaves were infected with an aqueous spore suspension of Alternaria solani in a 2% strength biomalt solution having a density of 0.17×10^6 spores/ml. The plants were then placed in a water-vapor-saturated chamber at temperatures between 20 and 22° C. After 5 days, the disease on the untreated but infected control plants had developed to such an extent that the infection could be determined visually in %.
The visually determined percentages of infected leaf areas were converted into efficacies in % of the untreated control:
The efficacy (E) is calculated as follows using Abbot's formula: E=(1−α/β)·100 • α corresponds to the fungal infection of the treated plants in % and • β corresponds to the fungal infection of the untreated (control) plants in %
An efficacy of 0 means that the infection level of the treated plants corresponds to that of the untreated control plants; an efficacy of 100 means that the treated plants were not infected.
The expected efficacies of mixtures of active compounds were determined using Colby's formula (Colby, S. R. “Calculating synergistic and antagonistic responses of herbicide combinations”, Weeds, 15, 20-22, 1967) and compared with the observed efficacies.
Colby's formula: E=x+y−x·y/100 • E expected efficacy, expressed in % of the untreated control, when using the mixture of the active compounds A and B at the concentrations a and b • x efficacy, expressed in % of the untreated control, when using the active compound A at the concentration a
y efficacy, expressed in % of the untreated control, when using the active compound B at the concentration b

SMILES	Efficacy in % of the untreated control (1.25 ppm active compound in the spray liquor) [%]	Efficacy in % of the untreated control (5 ppm active compound in the spray liquor, infected next day) [%]	Efficacy in % of the untreated control (1 ppm active compound in the spray liquor) [%]	Efficacy in % of the untreated control (6.25 ppm active compound in the spray liquor) [%]
CC1CCN(c2c(-c3c(F)cc(F)cc3F)c(Cl)nc3ncnn23)CC1 [I, 5-chloro-7-(4-methylpiperidin-1-yl)-6-(2,4,6-trifluorophenyl)-[1,2,4]triazolo[1,5-a]pyrimidine]	0	22	–	–
CO/N=C(\Cc1cccnc1)c1cc(Cl)cc(Cl)c1 [II (pyrifenox), 1-(3,5-dichlorophenyl)-2-pyridin-3-ylethanone-O-methyloxime]	–	–	0	0
